Laboratory results taken from patent US9113629B2, “4-amino-6-(4-substituted-phenyl)-picolinates and 6-amino-2-(4-substituted-phenyl)-pyrimidine-4-carboxylates and their use as herbicides” (DOW AGROSCIENCES LLC, priority 2013, dated 2015).
Like-named read-outs stand apart in the source and are kept apart here.

Legend:
[1] = test system: Key Broadleaf Weed and Crop Species; experiment: Post-emergent Test II herbicidal activity (Table 5); assay type: in vivo; details: post-emergence, 336 h, 14 days after application; for pest or weed control at 70 g/ha: application rate 70 g ai/ha; for pest or weed control at 140 g/ha: application rate 140 g ai/ha
Outline: (§1)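 Plants grown in Metro-Mix 360 (pH 6.0–6.8) in a greenhouse (~15 h photoperiod, 23–29 °C day) to first or second true leaf stage, then sprayed with compound in acetone/DMSO/aqueous crop-oil-surfactant carrier at 187 L/ha by track sprayer. Injury visually scored 0–100% versus untreated plants after 14 d.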

[2] = test system: Key Grass and Sedge Weeds as well as Grass Crops; experiment: Post-emergent Test II herbicidal activity (Table 6); assay type: in vivo; details: post-emergence, 336 h; for pest or weed control at 70 g/ha: 70 g ai/ha; for pest or weed control at 140 g/ha: 140 g ai/ha
Outline: as §1

[3] = ABUTH: velvetleaf (Abutilon theophrasti), read-out: Visual Growth Reduction (%) 14 Days After Application, ABUTH
[4] = AMARE: redroot pigweed (Amaranthus retroflexus), read-out: Visual Growth Reduction (%) 14 Days After Application, AMARE
[5] = BRSNN: oilseed-rape, canola (Brassica napus), read-out: Visual Growth Reduction (%) 14 Days After Application, BRSNN
[6] = CHEAL: lambsquarters (Chenopodium album), read-out: Visual Growth Reduction (%) 14 Days After Application, CHEAL
[7] = EPHHL: wild poinsettia (Euphorbia heterophylla), read-out: Visual Growth Reduction (%) 14 Days After Application, EPHHL
[8] = HELAN: sunflower (Helianthus annuus), read-out: Visual Growth Reduction (%) 14 Days After Application, HELAN
[9] = VIOTR: wild pansy (Viola tricolor), read-out: Visual Growth Reduction (%) 14 Days After Application, VIOTR
[10] = CYPES: yellow nutsedge (Cyperus esculentus), read-out: Visual Growth Reduction (%) 14 Days After Application, CYPES
[11] = DIGSA: crabgrass (Digitaria sanguinalis), read-out: Visual Growth Reduction (%) 14 Days After Application, DIGSA
[12] = ECHCG: barnyardgrass (Echinochloa crus-galli), read-out: Visual Growth Reduction (%) 14 Days After Application, ECHCG
[13] = ORYSA: rice (Oryza sativa), crop, read-out: Visual Growth Reduction (%) 14 Days After Application, ORYSA
[14] = SETFA: giant foxtail (Setaria faberi), read-out: Visual Growth Reduction (%) 14 Days After Application, SETFA
[15] = SORVU: grain sorghum (Sorghum vulgare), read-out: Visual Growth Reduction (%) 14 Days After Application, SORVU
[16] = TRZSS (wheat, Triticum aestivum), crop, read-out: Visual Growth Reduction (%) 14 Days After Application, TRZSS
[17] = ZEAMX: maize, corn (Zea mays), crop, read-out: Visual Growth Reduction (%) 14 Days After Application, ZEAMX

Row | SMILES | melting point | pest or weed control at 70 g/ha [1, 3] | pest or weed control at 140 g/ha [1, 3] | pest or weed control at 70 g/ha [1, 4] | pest or weed control at 140 g/ha [1, 4] | pest or weed control at 70 g/ha [1, 5] | pest or weed control at 140 g/ha [1, 5] | pest or weed control at 70 g/ha [1, 6] | pest or weed control at 140 g/ha [1, 6] | pest or weed control at 70 g/ha [1, 7] | pest or weed control at 140 g/ha [1, 7] | pest or weed control at 70 g/ha [1, 8] | pest or weed control at 140 g/ha [1, 8] | pest or weed control at 70 g/ha [1, 9] | pest or weed control at 140 g/ha [1, 9] | pest or weed control at 70 g/ha [2, 10] | pest or weed control at 140 g/ha [2, 10] | pest or weed control at 70 g/ha [2, 11] | pest or weed control at 140 g/ha [2, 11] | pest or weed control at 70 g/ha [2, 12] | further results
1 | C#Cc1ccc(-c2nc(C(=O)OC)c(Cl)c(N)c2F)cc1F [Compound 133, methyl 4-amino-3-chloro-6-(4-ethynyl-3-fluorophenyl)-5-fluoropicolinate] | 141 to 143 °C | 85 to 94% | 95 to 100% | 75 to 84% | 75 to 84% | 75 to 84% | 95 to 100% | 95 to 100% | 95 to 100% | 85 to 94% | 95 to 100% | 95 to 100% | 95 to 100% | 0 to 29% | 30 to 44% | 30 to 44% | 45 to 59% | 0 to 29% | 60 to 74% | 0 to 29% | pest or weed control at 140 g/ha [2, 12]: 60 to 74%; pest or weed control at 70 g/ha [2, 13]: 0 to 29%; pest or weed control at 140 g/ha [2, 13]: 0 to 29%; pest or weed control at 70 g/ha [2, 14]: 45 to 59%; pest or weed control at 140 g/ha [2, 14]: 75 to 84%; pest or weed control at 70 g/ha [2, 15]: 60 to 74%; pest or weed control at 140 g/ha [2, 15]: 75 to 84%; pest or weed control at 70 g/ha [2, 16]: 30 to 44%; pest or weed control at 140 g/ha [2, 16]: 30 to 44%; pest or weed control at 70 g/ha [2, 17]: 95 to 100%; pest or weed control at 140 g/ha [2, 17]: 95 to 100%
2 | COC(=O)c1nc(-c2ccc(I)cc2F)nc(N)c1OC [Compound 82] | 159 to 162 °C | 95 to 100% | 95 to 100% | 95 to 100% | 95 to 100% | 85 to 94% | 85 to 94% | 85 to 94% | 95 to 100% | 95 to 100% | 95 to 100% | 95 to 100% | 95 to 100% | 60 to 74% | 75 to 84% | 95 to 100% | 95 to 100% | 0 to 29% | 0 to 29% | 45 to 59% | pest or weed control at 140 g/ha [2, 12]: 85 to 94%; pest or weed control at 70 g/ha [2, 13]: 0 to 29%; pest or weed control at 140 g/ha [2, 13]: 0 to 29%; pest or weed control at 70 g/ha [2, 14]: 0 to 29%; pest or weed control at 140 g/ha [2, 14]: 0 to 29%; pest or weed control at 70 g/ha [2, 15]: 0 to 29%; pest or weed control at 140 g/ha [2, 15]: 45 to 59%; pest or weed control at 70 g/ha [2, 16]: 30 to 44%; pest or weed control at 140 g/ha [2, 16]: 30 to 44%; pest or weed control at 70 g/ha [2, 17]: 95 to 100%; pest or weed control at 140 g/ha [2, 17]: 95 to 100%
